# In patent US9096565B2, “Inhibitors of histone deacetylase” (MethylGene Inc., priority 2007, dated 2015):
# Target: one or more of HDAC-4, HDAC-5, HDAC-6, HDAC-7, HDAC-8, HDAC-9, HDAC-10 and HDAC-11
# Assay: Inhibition of histone deacetylase enzymatic activity (summary statement over isoforms)
# Type: biochemical
# Conditions: Table 3, selected examples; HDAC isoform not given
# Summary of the method: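 Activity was measured as deacetylation of the fluorogenic substrate Boc-Lys(trifluoroacetyl)-AMC over 20-30 min at 37 °C, after a 5 min room-temperature preincubation of enzyme with compound. Trypsin (1 mg/mL) with a reference HDAC inhibitor ended the reaction.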
row,SMILES,IC50 [nM]
1,"O=C(NO)C(c1ccccc1)n1ccc(-c2ccccc2)c1 (stereo not shown) [Compound 5-2, N-hydroxy-2-phenyl-2-(3-phenyl-1H-pyrrol-1-yl)acetamide]",< 1000
2,"CN(C)c1ccc(C(C(=O)NO)c2ccc(O)cc2)cc1 (stereo not shown) [Compound 5-5, 2-(4-(dimethylamino)phenyl)-N-hydroxy-2-(4-hydroxyphenyl)acetamide]",< 1000
3,"O=C(NO)C(c1ccccc1)N1CC=C(c2c[nH]c3ccccc23)CC1 (stereo not shown) [Compound 5-7, 2-(4-(1H-indol-3-yl)-5,6-dihydropyridin-1(2H)-yl)-N-hydroxy-2-phenylacetamide]",< 1000
4,"O=C(NO)C(c1ccccc1)N1CCN(S(=O)(=O)c2ccccc2)CC1 (stereo not shown) [Compound 5-8, N-hydroxy-2-phenyl-2-(4-(phenylsulfonyl)piperazin-1-yl)acetamide]",< 1000
5,"COc1ccc(-c2ccc(C(C(=O)NO)c3ccccc3)cc2)cc1 (stereo not shown) [Compound 5-9, N-hydroxy-2-(4′-methoxybiphenyl-4-yl)-2-phenylacetamide]",< 1000
6,"O=C(NO)C(c1ccccc1)N1CCN(c2ncc(-c3ccccc3)cn2)CC1 (stereo not shown) [Compound 5-11, N-hydroxy-2-phenyl-2-(4-(5-phenylpyrimidin-2-yl)piperazin-1-yl)acetamide]",< 1000
7,"O=C(NO)C(c1ccccc1)c1ccc(-c2cccc3ccccc23)cc1 (stereo not shown) [Compound 5-13, N-hydroxy-2-(4-(naphthalen-1-yl)phenyl)-2-phenylacetamide]",< 1000
8,"O=C(NO)C(Oc1ccc(-c2ccccc2)cc1)c1ccccc1 (stereo not shown) [Compound 5-14, 2-(biphenyl-4-yloxy)-N-hydroxy-2-phenylacetamide]",1000 to 15000
9,"O=C(NO)C(c1ccccc1)N1CCc2[nH]c3ccc(F)cc3c2C1 (stereo not shown) [Compound 5-16, 2-(8-fluoro-3,4-dihydro-1H-pyrido[4,3-b]indol-2(5H)-yl)-N-hydroxy-2-phenylacetamide]",1000 to 15000
10,"O=C(NO)C(c1ccccc1)N1CCC(c2cn(Cc3ccccc3)c3ccccc23)CC1 (stereo not shown) [Compound 5-17, 2-(4-(1-benzyl-1H-indol-3-yl)piperidin-1-yl)-N-hydroxy-2-phenylacetamide]",< 1000
11,"O=C(NO)C(c1ccccc1)N1CCC(c2noc3ccc(F)cc23)CC1 (stereo not shown) [Compound 5-18, 2-(4-(5-fluorobenzo[d]isoxazol-3-yl)piperidin-1-yl)-N-hydroxy-2-phenylacetamide]",< 1000
12,"O=C(NO)C(c1ccccc1)N1CCN(C2=Nc3ccccc3Oc3ccc(Cl)cc32)CC1 (stereo not shown) [Compound 5-20, (E)-2-(4-(2-chlorodibenzo[b,f][1,4]oxazepin-11-yl)piperazin-1-yl)-N-hydroxy-2-phenylacetamide]",< 1000

# Next, values leading:
row,IC50 [nM],SMILES
1,< 1000,"O=C(NO)C(c1ccccc1)c1nnc(Cc2c[nH]c3ccccc23)s1 (stereo not shown) [Compound 5-3, 2-(5-((1H-indol-3-yl)methyl)-1,3,4-thiadiazol-2-yl)-N-hydroxy-2-phenylacetamide]"
2,< 1000,"O=C(NO)C(c1ccccc1)c1nnc(-c2cccs2)s1 (stereo not shown) [Compound 5-4, N-hydroxy-2-phenyl-2-(5-(thiophen-2-yl)-1,3,4-thiadiazol-2-yl)acetamide]"
3,1000 to 15000,"O=C(NO)C(c1ccccc1)[S+]([O-])c1ccccc1 (stereo not shown) [Compound 5-6, N-hydroxy-2-phenyl-2-(phenylsulfinyl)acetamide]"
4,< 1000,"O=C(NO)C(c1ccccc1)c1ccc(-c2ccncc2)cc1 (stereo not shown) [Compound 5-10, N-hydroxy-2-phenyl-2-(4-(pyridin-4-yl)phenyl)acetamide]"
5,< 1000,"O=C(NO)C(c1ccccc1)c1ccc(-c2cccnc2)cc1 (stereo not shown) [Compound 5-12, N-hydroxy-2-phenyl-2-(4-(pyridin-3-yl)phenyl)acetamide]"
6,< 1000,"O=C(NO)C(c1ccccc1)c1cccnc1 (stereo not shown) [Compound 5-15, N-hydroxy-2-phenyl-2-(pyridin-3-yl)acetamide]"
7,1000 to 15000,"O=C(NO)C(c1ccccc1)c1nnc(-c2ccccc2)s1 (stereo not shown) [Compound 5-19, N-hydroxy-2-phenyl-2-(5-phenyl-1,3,4-thiadiazol-2-yl)acetamide]"
